Reference: article PMC11793105, “A kalihinol analog disrupts apicoplast function and vesicular trafficking in P. falciparum malaria” (Science (New York, N.Y.), 2024)
Where two headings read alike, the source gives them in different places.

Assays:
P. falciparum cultures = assay: Exponential killing rate at IC80; type: cell-based, Plasmodium falciparum; conditions: triplicate
[1] = system: S. cerevisiae strains with overexpressed or repressed Sec13p; type: cell-based, Saccharomyces cerevisiae; conditions: Tet-off promoter, doxycycline, vs WT yeast
Text: (§1) Fig. 4. […] (C) Schematic representation of the CRISPR-Cas9–based replacement strategy used to introduce a deletion of the targeted repeat regions in the PfSec13 gene. The insertion was achieved through overlap extension polymerase chain reaction (PCR) of fragments directly upstream and downstream of the target segment and subsequently formed by primer overlap extension PCR to replicate the desired deletion. […] (D) Predicted structure of the SEC13 protein highlighting the seven amino acid tandem repeat regions targeted for deletion (red). […] Data were analyzed using a Sigmoidal, 4PL (X represents concentration, n = 3, nonlinear regression, CI: 95%).
PCR amplification and introduced into an episomal E. coli/yeast shuttle vector, pRS425, by using an in-fusion cloning kit (Takara Bio USA, Inc) and the resulting pRS425-SEC13 plasmid was transformed into the BY4741 yeast strain. To swiftly repress the SEC13 gene, we utilized the tet-off system. This involved substituting the native SEC13 gene promoter with a tetracycline (tet)- regulatable counterpart, while leaving the original SEC13 open reading frame intact. The yeast

[2] = system: 3D7 Clone-Kalihinol Treated (MED6-189 resistant line); assay: SYBR Green dose response, MED6-189-selected resistant line; type: cell-based, Plasmodium falciparum; conditions: resistant line after ~36 months of drug pressure
Text: To assess whether we could use the DMSO melting curves previously established for […] by Dziekan et al. ([49]), we calculated the difference in melting temperatures (ΔTm) between our DMSO dataset and Dziekan’s for 364 proteins for which Tm values were confidently calculated by mineCETSA (table S6).
as §1
(§2) P. falciparum in vitro SYBR green fluorescence-based assays The anti-malarial activity of individual analogues were evaluated in-vitro against P. falciparum 3D7 (MRA-102, drug […]
(§3) green-I based fluorescence assay. Parasite growth rate and stages of development were determined via microscopy through Giemsa-stained smears of the cultures. […]

[3] = system: P. knowlesi YH1 human erythrocyte infecting parasites; assay: P. knowlesi in vitro IC50 assay (flow cytometry), human erythrocytes; type: cell-based; conditions: Plasmodium knowlesi
Method: Fig. 5. In vivo and broad-spectrum antimalarial efficacy of MED6-189. (A) The in vivo efficacy of MED6-189 was evaluated in a humanized mouse model infected with P. falciparum (blue) compared with untreated controls (black). […] The graphs illustrate the logarithmic growth of parasites (y axis) in response to varying drug concentrations (x axis). Error bars represent standard deviations from two independent experiments conducted in triplicate. The regression line is derived from a nonlinear regression analysis (variable slope with four parameters, least squares fit). (C) Proposed mode of action of MED6-189 in P. falciparum–infected erythrocytes. […]
Detailed information on materials and methods is available in the supplementary materials. […] P. knowlesi assays were quantitatively measured by flow cytometry using SYBR Green I and Mitrotracker Deep Red, as previously described ([84], [85]), on a Beckman Coulter CytoFLEX. […]
as §2, §3

[4] = system: PfSec13-mut transgenic clones (3D7); assay: Parasite survival assay, CRISPR-Cas9 PfSec13-mut transgenic clones; type: cell-based; conditions: Plasmodium falciparum
Text: as §1, §2
green-I based fluorescence assay. Parasite growth rate and stages of development were determined via microscopy through Giemsa-stained smears of the cultures. Serial dilutions of the compounds ranging from 10uM-0.5nM were prepared in 96-well plates (Corning, Costar 3904) followed by […]
hematocrit added to each well. Eight wells were treated with vehicle control (DMSO) as control.
Plates were incubated in a modular incubation chamber (Billups-Rothenberg, Del Mar, CA)

[5] = biological target: BSEP (bile salt export pump) (Homo sapiens, UniProt O95342); assay: Enhanced Cross Screen Panel (eXP): BSEP inhibition
BSEP (bile salt export pump), sequence (O95342 whole entry, species assumed): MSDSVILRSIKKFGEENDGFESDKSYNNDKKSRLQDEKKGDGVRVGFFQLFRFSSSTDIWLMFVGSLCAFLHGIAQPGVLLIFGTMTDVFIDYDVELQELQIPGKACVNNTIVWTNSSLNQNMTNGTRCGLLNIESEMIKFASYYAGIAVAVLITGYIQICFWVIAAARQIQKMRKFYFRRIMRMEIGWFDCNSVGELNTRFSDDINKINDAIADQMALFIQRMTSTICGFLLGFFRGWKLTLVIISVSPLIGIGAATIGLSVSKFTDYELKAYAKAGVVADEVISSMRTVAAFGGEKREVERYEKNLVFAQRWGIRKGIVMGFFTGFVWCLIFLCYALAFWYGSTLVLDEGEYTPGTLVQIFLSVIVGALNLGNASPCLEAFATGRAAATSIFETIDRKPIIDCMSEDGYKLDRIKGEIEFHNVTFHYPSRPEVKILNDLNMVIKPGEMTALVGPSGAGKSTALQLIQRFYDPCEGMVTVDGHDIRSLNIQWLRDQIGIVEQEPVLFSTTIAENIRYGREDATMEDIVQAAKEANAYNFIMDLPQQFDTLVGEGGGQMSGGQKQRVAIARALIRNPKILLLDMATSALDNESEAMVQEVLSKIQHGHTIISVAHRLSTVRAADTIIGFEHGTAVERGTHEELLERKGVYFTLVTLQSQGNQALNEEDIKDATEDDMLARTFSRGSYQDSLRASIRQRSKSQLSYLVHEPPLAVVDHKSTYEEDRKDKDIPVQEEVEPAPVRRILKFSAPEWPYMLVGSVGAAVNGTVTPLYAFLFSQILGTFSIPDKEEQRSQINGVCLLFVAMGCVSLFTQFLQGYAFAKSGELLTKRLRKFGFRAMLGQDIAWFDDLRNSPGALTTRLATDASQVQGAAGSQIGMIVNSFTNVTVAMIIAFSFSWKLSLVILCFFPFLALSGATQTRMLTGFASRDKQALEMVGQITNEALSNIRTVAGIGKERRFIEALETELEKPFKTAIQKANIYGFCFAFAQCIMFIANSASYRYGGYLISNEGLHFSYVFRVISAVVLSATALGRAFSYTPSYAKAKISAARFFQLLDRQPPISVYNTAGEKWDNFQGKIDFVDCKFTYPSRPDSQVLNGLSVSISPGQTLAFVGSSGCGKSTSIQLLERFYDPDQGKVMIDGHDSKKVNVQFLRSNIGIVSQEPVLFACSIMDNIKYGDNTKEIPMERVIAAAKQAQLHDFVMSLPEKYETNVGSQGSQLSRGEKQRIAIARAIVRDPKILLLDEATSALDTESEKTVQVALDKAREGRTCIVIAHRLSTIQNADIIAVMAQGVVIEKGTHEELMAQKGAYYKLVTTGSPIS

[C-]#[N+][C@]1(C)CC[C@H]2[C@@H]([C@@H](C(C)C)CC[C@]2(C)[N+]#[C-])[C@H]1O [MED6-189]
Exponential killing rate k = (1/t)* log10(N0/Nt) (P. falciparum cultures; at IC80, 48 HPS): 0.008801
Exponential killing rate k = (1/t)* log10(N0/Nt) (P. falciparum cultures; at IC80, 72 HPS): 0.007941
Exponential killing rate k = (1/t)* log10(N0/Nt) (P. falciparum cultures; at IC80, 100 HPS): 0.0183
increase in susceptibility on Sec13p repression [1]: ~ 5.5 fold
IC50 ([2]; 3D7 Clone-Kalihinol Treated): 58.1 nM
IC50 ([2]; Plasmodium falciparum, 3D7, 3D7 Clone-Kalihinol Treated): ~60 nM
IC50 [3]: 309 ± 42 nM
IC50 ([4]; 3D7, Sec13 mut-A): 59.8 nM
IC50 ([4]; 3D7, Sec13 mut-B): 53.5 nM
IC50 ([4]; 3D7, Sec13 mut-C): 49.5 nM
IC50 ([4]; 3D7, Sec13 mut-D): 72.9 nM
IC50 ([4]; 3D7, read-out: IC50 range, four PfSec13-mut transgenic clones): 50 to 73 nM
IC50 [5]: 50000 nM
